Source: US20050234113A1, “Antioxidant and radical scavenging activity of synthetic analogs of desferrithiocin” (University of Florida Research Foundation, Inc., priority 2002, published 2005)
Several values for one entry are separate records, joined by “and”; a condition that tells them apart may be missing. Identical values can stand only once. Entries after “also recorded” stand apart in the source; their conditions may differ.

Legend:
[1] = system: iron; test: Iron clearance in the iron-overloaded Cebus apella monkey; format: in vivo; details: as sodium salt
Description: The monkeys were iron overloaded with intravenous iron dextran to provide about 500 mg iron per kg body weight. The serum transferrin iron saturation rose to between 70 and 80%. At least twenty half-lives, sixty days, elapsed before any of the animals were used in experiments evaluating iron-chelating agents.
Fecal and urine samples were collected at 24 hour intervals and processed. Briefly, the collections began 4 days prior to the administration of the test drug and continued for an additional 5 days after the drug was given. Iron concentrations were determined by flame atomic absorption spectroscopy.
(§1) The iron chelators were solubilized in 40% Cremophor RH-40/water (v/v) and given orally and subcutaneously to the rats at the doses shown in Table 4. In the primates, DFO was dissolved in sterile H2O at a concentration of 50 or 100 mg/mL and given orally or subcutaneously at a volume of 1 ml/kg. The desferrithiocin analogues were solubilized in 40% Cremophor RH-40/water (v/v) and given orally to the monkeys at the doses shown in Table 4. However, the desferrithiocin analogues were administered subcutaneously as either a suspension in distilled H2O or as their sodium salts in solution as indicated in Table 4.
(§2) Iron clearance studies were carried out both in the non iron-overloaded, bile duct-cannulated rodent model and in the iron-overloaded Cebus apella monkey, and the results are reported as iron clearing efficiency (Table 4). This number is generated by dividing the net iron clearance [total iron excretion (bile or stool plus urine) minus background] by the theoretical iron clearance and multiplying by 100. The theoretical iron clearance is based on a 2:1 metal complex stoichiometry for 4′-(HO)-DADMDFT, a 1:1 stoichiometry for DFO, and a 1:1 stoichiometry for BDU, as shown in the Job's plot (FIG. 5). Data are presented as the mean±the standard error of the mean. The drugs were administered both orally (po) and subcutaneously (sc) to the rodents and primates; the positive control was DFO.

[2] = system: iron; test: Iron clearance in the non iron-overloaded, bile duct-cannulated rodent model; format: in vivo, Sprague-Dawley rats
Description: Briefly, male Sprague-Dawley rats averaging 450 g were housed in Nalgene plastic metabolic cages during the experimental period and given free access to water. The animals were anesthetized using sodium pentobarbital (55 mg/kg) administered intraperitoneally. The bile duct was cannulated using 22-gauge polyethylene tubing. The cannula was inserted into the duct about 1 cm from the duodenum and tied snugly in place. After threading through the shoulder, the cannula was passed from the rat to the swivel inside a metal torque-transmitting tether, which was attached to a rodent jacket around the animal's chest. The cannula was directed from the rat to a Gilson microfraction collector (Middleton, Wis.) by a fluid swivel mounted above the metabolic cage. Bile samples were collected at 3 hour intervals for 24 hours. The urine sample was taken at 24 hours and handling was as previously described. (Bergeron, R. J., et al., J. Med. Chem. 34:2072-2078 (1991).
as §1, §2

[3] = Prevention of iron-mediated oxidation of ascorbate (ascorbate-mediated reduction of Fe(III)); details: ascorbate 100 μM, FeCl3 30 μM, pH 7.4, ligand/Fe ratios 0-3, 40 min
Description: (§3) The iron chelators were tested for their ability to diminish the iron-mediated oxidation of ascorbate by the method of Dean and Nicholson (Free Radical Res. 20, 83-101 (1994)). Briefly, a solution of freshly prepared ascorbate (100 μM) in sodium phosphate buffer (5 mM, pH 7.4) was incubated in the presence of FeCl3 (30 μM) and chelator (ligand/Fe ratios varied from 0-3) for 40 min. The A265 was read at 10 and 40 min; the ΔA265 in the presence of ligand was compared to that in its absence.
The role of chelators in either inhibition or promotion of the Fenton reaction is related to their capacity to prevent Fe(III) from being reduced to Fe(II). Fe(II) is required for the reduction of H2O2 to HO. and HO^−. The assay involves spectrophotometrically monitoring the disappearance of ascorbate at pH 7.4 in the presence of FeCl3 and chelator at several ligand/Fe ratios. Under these conditions, ascorbate is oxidized to an L-ascorbyl radical anion. This anion then disproportionates to dehydroascorbic acid and ascorbate.
as §3, with “chelators nitrilotriacetic acid (NTA), 1,2-dimethyl-3-hydroxypyridin-4-one (L1), desferrioxamine B (DFO), (S)-4′-(HO)-DADMDFT, and (S,S)-1,11-Bis[5-(4-carboxyl-4,5-dihydro-1,3-thiazol-2-yl)-2,4-dihydroxyphenyl]-4,8-dioxaundecane (BDU)” for “chelators”, “Nicholson, Free” for “Nicholson (Free”, “20:” for “20,”, “(1994).” for “(1994)).”
The measurement examines the disappearance of ascorbate. It is known that DFO, a hydroxamate chelator that forms a 1:1 complex with Fe(III) at a formation constant of approximately 10^31 M^−1, prevents ascorbate-mediated reduction of Fe(III); it serves as a positive control in the present study. Both NTA and L1 promote ascorbate-mediated reduction of Fe(III) and serve as negative controls.

[4] = Quenching of the ABTS radical cation
Description: The iron chelators were tested for their ability to quench the radical cation formed from 2,2′-azinobis(3-ethylbenzothiazoline-6-sulfonic acid) (ABTS) by the method of Re et al. in Free Radic. Biol. Med. 26, 1231-1237 (1999). Briefly, a stock solution of ABTS radical cation was generated by mixing ABTS (10 mM, 2.10 mL) with K2S2O8 (8.17 mM, 0.90 mL) in H2O and […] deep blue-green ABTS radical cation was diluted in sufficient sodium phosphate (10 mM, pH 7.4) to give an A734 of about 0.900. Test compounds were added to a final concentration ranging from 1.25 to 15 μM, and the decrease in A734 was read after 1, 2, 4 and 6 min. The reaction was largely complete by 1 min, but the data presented are based on a 6-min reaction time.
In this assay, a fairly stable radical cation, ABTS^+, was examined, and Trolox, an analog of vitamin E, was used as a positive control. Briefly, the procedure involved generating the blue-green chromophore by the reaction of ABTS with K2S2O8. The radical has absorption maxima at λ=415, 645, 734, and 815 nm. The change in absorbance at 734 nm was noted 6 min after addition of the chelator of interest at various concentrations, and the slope of the ΔA734 vs. ligand concentration line was calculated.
The iron chelators were tested for their ability to quench the radical cation formed from 2,2′-azinobis(3-ethylbenzothiazoline-6-sulfonic acid) (ABTS) by a published method (Re, R., et al., Free Radical Biol. Med. 26:1231-1237 (1999). Briefly, a stock solution of ABTS radical cation was generated by mixing ABTS (10 mM, 2.10 mL) with K2S2O8 (8.17 mM, 0.90 mL) in H2O and allowing the solution to sit in the dark at room temperature for 18 hours. This stock solution of deep blue-green ABTS radical cation was diluted in sufficient sodium phosphate (10 mM, pH 7.4) to give an A734 of about 0.900. Test compounds were added to a final concentration ranging from 1.25 to 15 μM, and the decrease in A734 was read after 1, 2, 4 and 6 min. The reaction was largely complete by 1 min, but the data presented are based on a 6-min. reaction time.
This radical cation decolorization assay utilizes the pre-formed radical monocation of 2,2′-azinobis(3-ethylbenzothiazoline-6-sulfonic acid) (ABTS) and has been used to evaluate the antioxidant capacity of a large number of compounds and mixtures. Briefly, the change in absorbance of the blue-green chromophore was recorded after the addition of the chelator of interest at each of the different concentrations, and the slope of the ΔA734 vs. ligand concentration line was calculated. The positive control for this reaction was Trolox, an analogue of vitamin E. The decrease in A734 as a function of ligand concentration is the comparitor among the five compounds evaluated. Trolox, L1, DFO, (S)-4′-(HO)-DADMDFT and BDU (Table 3). All four of the iron chelators performed better than Trolox; DFO≈BDU>(S)-4′-(HO)-DADMDFT>L1>Trolox. Thus, all of these ligands could be expected to serve as excellent radical scavengers.

[5] = Table 1, A734, six-minute reaction, pH 7.4, 1.25 to 15 μM

## O=C(O)[C@H]1CSC(c2cc(CCCOCCCOCCCc3cc(C4=N[C@@H](C(=O)O)CS4)c(O)cc3O)c(O)cc2O)=N1 [BDU, (S,S)-1,11-Bis[5-(4-carboxyl-4,5-dihydro-1,3-thiazol-2-yl)-2,4-dihydroxyphenyl]-4,8-dioxaundecane]
[1]; 75 μmol/kg sc
  % stool (of iron excreted), monkeys: 98%
  % urine (of iron excreted), monkeys: 2%
  efficiency in monkeys (%): 3.2±1.8% and 3.2 ± 1.8^g %
[1]; 150 μmol/kg sc, n = 3
  % urine (of iron excreted), monkeys: 0%
  efficiency in monkeys (%): 2.1±1.4% and 2.1 ± 1.4^g,h %
[2]; 150 μmol/kg po
  % bile (of iron excreted), rodents: 80%
  % urine (of iron excreted), rodents: 20%
  efficiency in rodents (%): 0.9±0.4%
[2]; 150 μmol/kg sc
  % bile (of iron excreted), rodents: 95%
  % urine (of iron excreted), rodents: 5%
  efficiency in rodents (%): 6.5±2.0%
[3]
  effect on ascorbate-mediated reduction of Fe(III) (in words): significant protection
[4]; Table 3, A734, 6-min reaction, values marked b are the inventors' unpublished results
  Slope × 10^3 OD units/μM (ABTS radical cation quenching): −136 × 10^3 OD units/μM

## Nc1ccc(O)c(C(=O)O)c1 [Compound 5-ASA, 5-aminosalicylic acid]
[3]
  effect on ascorbate-mediated reduction of Fe(III) (in words): promoted ascorbate-mediated reduction of Fe(III)
[3]; listed as 5-aminosalicylic acid
  effect on ascorbate-mediated reduction of Fe(III) (in words): increased the rate of iron(III) reduction
[4]; [5]
  Slope × 10^3 OD units/μM (ABTS radical cation quenching): −34.4 × 10^3 OD units/μM

## C[C@]1(C(=O)O)CSC(c2ccccc2O)=N1 [DADFT]
[4]; [5]
  Slope × 10^3 OD units/μM (ABTS radical cation quenching): −25.1 × 10^3 OD units/μM

## O=C(O)C1CSC(c2ccccc2O)=N1 (stereo not drawn) [DADMDFT, desazadesmethyldesferrithiocin]
[4]; [5]
  Slope × 10^3 OD units/μM (ABTS radical cation quenching): −28.1 × 10^3 OD units/μM

## O=C(O)CN(CC(=O)O)CC(=O)O [NTA, nitrilotriacetic acid]
[3]
  effect on ascorbate-mediated reduction of Fe(III) (in words): profoundly stimulatory effect; also recorded: promoted ascorbate-mediated reduction of Fe(III)
[3]; listed as nitrilotriacetic acid
  effect on ascorbate-mediated reduction of Fe(III) (in words): increased the rate of iron(III) reduction

## COCCOCCOCCN(O)C(C)=O [decyl hydroxamate, N-hydroxy,N-(3,6,9-trioxadecyl)acetamide]
[3]
  effect on ascorbate-mediated reduction of Fe(III) (in words): increased the rate of iron(III) reduction
